Measured values from the OPERA property sets (Mansouri et al. 2018).
In brackets after ≈: the same amount, converted by molar mass.

SMILES	solubility (20 °C) [mM]	solubility (25 °C) [mM]
CCCOC(C)=O	185 (≈ 18900 µg/mL)	
CC(=O)OC(C)C	303 (≈ 30900 µg/mL)	
C[C@H]1C[C@@H](OC(=O)c2ccccc2)CC(C)(C)N1	12 (≈ 2960 µg/mL)	
CC(=O)Nc1ccc([N+](=O)[O-])cc1		12.2 (≈ 2200 µg/mL)
COc1ccc(C=CC(=O)O)cc1		5.15 (≈ 918 µg/mL)
COC(C)=O	3280 (≈ 243000 µg/mL)	
CC(C)c1ccc(C(=O)O)cc1		0.92 (≈ 151 µg/mL)
O=C(O)c1ccccc1Br		9.23 (≈ 1860 µg/mL)
CC(Cl)C(Cl)(Cl)C(O)O (stereo not drawn)	136 (≈ 26300 µg/mL)	
O=C(O)C=Cc1cccc(Br)c1		2.31 (≈ 525 µg/mL)
Cc1cccc(S(N)(=O)=O)c1		45.6 (≈ 7810 µg/mL)
O=C(O)/C=C/c1ccc2c(c1)OCO2		0.141 (≈ 27 µg/mL)
F[P-](F)(F)(F)(F)F.N#[N+]c1ccccc1	36	
O=C1c2ccc(O)cc2C(=O)c2ccc(O)cc21		0.00129 (≈ 0.31 µg/mL)
O=C1c2ccccc2C(=O)c2cc(O)ccc21		0.00491 (≈ 1.1 µg/mL)
CCOC(=O)CCCCC(=O)OCC	20.9 (≈ 4230 µg/mL)	
CCCCCCCCC(C(=O)O)C(=O)O		1.2 (≈ 260 µg/mL)
O=C(O)c1ccc(I)cc1		0.109 (≈ 27 µg/mL)
